Test results as given in PMC11864979, “First-in-class ultralong-target-residence-time p38α inhibitors as a mitosis-targeted therapy for colorectal cancer” (Nature Cancer, 2025).
Where “and” joins values, the source holds several entries; their conditions need not be identical. Identical values can stand only once. Like-named read-outs stand apart in the source and are kept apart here.

Tests used:
[1] = system: PDO13; experiment: cell viability in patient-derived CRC organoids PDO13; format: cell-based, human
Protocol: (§1) For in vitro treatment studies, organoids were mechanically dissociated and digested using TrypLE supplemented with 100 µg ml^−1 DNaseI and 10.5 µM Y-27632 dihydrochloride (Invitrogen) at 37 °C. A total of 1,000–2,000 single cells were plated per well in white 96-well plates (Greiner) in culture medium containing 10% GFR Matrigel or Cultrex BME. The treatment with doxycycline (5 µg ml^−1), pharmacological inhibitors or corresponding volumes of DMSO was started 24 h after plating. Doxycycline was obtained from Sigma-Aldrich. […] Cell viability was measured by means of CellTiter-Glo 3D or CellTiter-Glo 2.0 reagent (Promega) according to the manufacturers’ instructions and the Infinite M Plex reader (Tecan, i-control version 3.9.1 software). Results were normalized to vehicle (DMSO) or to shNC. For cell-doubling assays, the cell number was quantified at the corresponding time points using Guava EasyCyte flow cytometer (Luminex, CytoSoft v5.2 software).

[2] = system: KAP^2D cells; experiment: quantification of viable KAP^2D cells over time (cell-doubling assay); format: cell-based, mouse; conditions: Fig. 4i
Protocol: The treatment with doxycycline (5 µg ml^−1), pharmacological inhibitors or corresponding volumes of DMSO was started 24 h after plating. […] Cell viability was measured by means of CellTiter-Glo 3D or CellTiter-Glo 2.0 reagent (Promega) according to the manufacturers’ instructions and the Infinite M Plex reader (Tecan, i-control version 3.9.1 software). Results were normalized to vehicle (DMSO) or to shNC. For cell-doubling assays, the cell number was quantified at the corresponding time points using Guava EasyCyte flow cytometer (Luminex, CytoSoft v5.2 software).

[3] = system: COLO 205; experiment: cell viability in human CRC cell line COLO 205; format: cell-based; conditions: 4 d
Protocol: (§2) To generate KAP^2D cells, KAP organoids were isolated from Matrigel, fragmented by mechanical dissociation and plated without any extracellular matrix on common cell culture dishes. Phoenix-Eco packaging cells (CRL-3214), HCT-15 (CCL-225), HCT 116 (CCL-247), COLO 205 (CCL-222), LS 174T (CL-188), RKO (CRL-2577) and HT-29 (HTB-38) were obtained from the American Type Culture Collection. The cells were cultured at 37 °C and 7% CO2 with RPMI (KAP^2D cells) or DMEM (other cell lines), supplemented with 10% FBS and penicillin–streptomycin. KAP^2D cells were authenticated using PCR (Kras locus and Trp53 locus). Phoenix-Eco packaging cells and HCT-15, HCT 116, COLO 205, LS 174T, RKO and HT-29 cells were authenticated by the provider using short tandem repeat profiling. No commonly misidentified cell lines were used. Mycoplasma contamination was excluded by a PCR-based analysis.
as §1

[4] = system: HT-29; experiment: cell viability in human CRC cell line HT-29; format: cell-based; conditions: ED Fig. 9h, replicates; for viability at 0.0137 µM / viability at 0.0412 µM / viability at 0.1235 µM / viability at 0.3704 µM / viability at 1.1111 µM / viability at 3.3333 µM / viability at 10 µM: Homo sapiens, read-out: HT-29 Cell viability (%); for viability at 0.0137 µM: HT-29, 0.0137 µM; for viability at 0.0412 µM: HT-29, 0.0412 µM; for viability at 0.1235 µM: HT-29, 0.1235 µM; for viability at 0.3704 µM: HT-29, 0.3704 µM; for viability at 1.1111 µM: HT-29, 1.1111 µM; for viability at 3.3333 µM: HT-29, 3.3333 µM; for viability at 10 µM: HT-29, 10.0000 µM
Protocol: as §2, §1

Compound: O=C(NCCN1CCOCC1)c1ccc2c(c1)C(=O)c1ccc(Nc3ccc(F)c(NC(=O)c4ccccc4)c3)cc1CC2 [Compound 1639]
- viability at 0.5 µM ([1]; Homo sapiens, 96 h, PDO13, 0.5 µM, 4 d, read-out: Cell viability (%)): 93.8%
- viability at 1 µM ([1]; Homo sapiens, 96 h, PDO13, 1 µM, 4 days, read-out: Cell viability (%)): 84.5%
- Cell viability (%) ([1]; PDO13, 0.5 µM, 4 d, 0.5 µM): 111.59% and 96.20%
- Cell viability (%) ([1]; PDO13, 1 µM, 4 days, 1 µM): 86.80% and 77.48%
- Number of cells ([2]; 0 h of treatment): 41307.05 and 44263.95 and 43595.63 and 48502.24 and 40389.64
- Number of cells ([2]; 12 h of treatment): 90535.27 and 109902.14 and 96345.55 and 78642.86 and 78628.27 and 80020.34
- Number of cells ([2]; 24 h of treatment): 118591.59 and 122111.73 and 126637.09 and 105052.10 and 107245.70 and 108446.50
- Number of cells ([2]; 36 h of treatment): 147204.34 and 141762.38 and 180655.61 and 129977.80 and 144707.50 and 146373.80
- Number of cells ([2]; 48 h of treatment): 236686.34 and 244575.91 and 256532.61 and 222624.00 and 201311.80 and 207320.10
- Number of cells ([2]; 60 h of treatment): 438717.24 and 412186.50 and 425643.09 and 324012.80 and 330875.70 and 354806.50
- COLO 205 Cell viability (%) ([3]; 0.0137 µM): 96.89% and 92.36% and 102.13% and 110.53% and 105.25%
- COLO 205 Cell viability (%) ([3]; 0.0412 µM): 99.77% and 107.60% and 109.36% and 77.71% and 88.84% and 87.27%
- COLO 205 Cell viability (%) ([3]; 0.1235 µM): 93.71% and 107.24% and 99.74% and 85.52% and 87.44% and 87.93%
- COLO 205 Cell viability (%) ([3]; 0.3704 µM): 100.71% and 94.45% and 83.28% and 88.21% and 85.79%
- COLO 205 Cell viability (%) ([3]; 1.1111 µM): 89.26% and 96.25% and 98.03% and 68.45% and 75.66% and 76.80%
- viability at 0.0137 µM ([3]; Homo sapiens, COLO 205, 96 h, 0.0137 µM): 98.5%
- viability at 0.3704 µM ([3]; Homo sapiens, COLO 205, 96 h, 0.3704 µM): 92.5%
- HT-29 Cell viability (%) ([4]; 0.0137 µM, Repetition): 102.28% and 94.62%
- HT-29 Cell viability (%) ([4]; 0.0137 µM, first experiment): 94.47% and 95.05%
- HT-29 Cell viability (%) ([4]; 0.0412 µM, Repetition): 101.53% and 96.63%
- HT-29 Cell viability (%) ([4]; 0.0412 µM, first experiment): 94.54% and 96.05%
- HT-29 Cell viability (%) ([4]; 0.1235 µM, Repetition): 102.40% and 91.02%
- HT-29 Cell viability (%) ([4]; 0.1235 µM, first experiment): 88.93% and 89.95%
- HT-29 Cell viability (%) ([4]; 0.3704 µM, Repetition): 96.43% and 88.31%
- HT-29 Cell viability (%) ([4]; 0.3704 µM, first experiment): 89.51% and 89.95%
- HT-29 Cell viability (%) ([4]; 1.1111 µM, Repetition): 89.29% and 79.16%
- HT-29 Cell viability (%) ([4]; 1.1111 µM, first experiment): 95.25% and 92.43%
- HT-29 Cell viability (%) ([4]; 3.3333 µM, Repetition): 53.45% and 49.18%
- HT-29 Cell viability (%) ([4]; 3.3333 µM, first experiment): 66.80% and 71.86%
- HT-29 Cell viability (%) ([4]; 10.0000 µM, Repetition): 3.09% and 3.77%
- HT-29 Cell viability (%) ([4]; 10.0000 µM, first experiment): 4.59% and 5.12%
- viability at 0.0137 µM ([4]; Repetition): 102%
- viability at 0.0137 µM ([4]; first experiment): 94.8%
- viability at 0.0412 µM ([4]; Repetition): 105%
- viability at 0.0412 µM ([4]; first experiment): 93.8%
- viability at 0.1235 µM ([4]; Repetition): 104%
- viability at 0.1235 µM ([4]; first experiment): 88.1%
- viability at 0.3704 µM ([4]; Repetition): 95.8%
- viability at 0.3704 µM ([4]; first experiment): 88.9%
- viability at 1.1111 µM ([4]; Repetition): 88.5%
- viability at 1.1111 µM ([4]; first experiment): 92.4%
- viability at 3.3333 µM ([4]; Repetition): 52.9%
- viability at 3.3333 µM ([4]; first experiment): 70.7%
- viability at 10 µM ([4]; Repetition): 3.22%
- viability at 10 µM ([4]; first experiment): 4.71%
